Assays:
[1] = Decomposition in differential thermal analysis (2% weight loss, atmosphere: air); assay type: physicochemical
Protocol: A mixture of 5 g of terephthalic acid and 3.9 g of aluminum trisdiethylphosphinate is reacted for 0.5 h at 350° C., as in example 1.

[2] = under nitrogen; cited from earlier work

Molecule | Decomposition in differential thermal analysis (2% weight loss) [1] | Evaporation temperature [2]
CCP(=O)([O-])CC.O=C([O-])c1ccc(C(=O)[O-])cc1.[Al+3] [Example 4, aluminum mono(diethylphosphinate)terephthalate] | 425 °C | –
CC(C)CP(=O)([O-])CC(C)C.CC(C)CP(=O)([O-])CC(C)C.CC(C)CP(=O)([O-])CC(C)C.[Al+3] [aluminum salt of diisobutylphosphinic acid] | – | 300 to 400 °C
aluminum terephthalate | 298 °C | –
aluminum trisdiethylphosphinate | 355 °C | 400 to 500 °C

From patent US8221658B2, “Mixed salts of diorganylphosphinic acids and carboxylic acids” (Clariant Finance (BVI) Limited, priority 2007, dated 2012)
